How the values were obtained:
[1] = test system: NIH-Swiss mice; 129S6 wild type and nociceptin/ORL1 receptor knockout mice; assay: Forced-swim test in mice (mFST); type: in vivo, mouse
Source text: Forced-Swim Test in Mice (mFST) mFST is an established in vivo assay for antidepressant activity (Li et al. J Pharmacol Exp Ther. 319(1):254-9, 2006.). […] The mFST was used to evaluate potential antidepressant-like activity of novel nociceptin/ORL1 antagonists according to previously published methods (Li et al. J Pharmacol Exp Ther. 319(1):254-9, 2006.). Briefly, male NIH-Swiss mice (Harlan Sprague-Dawley, Indianapolis, Ind.) weighing between 25-30 g are used. Group housed animals are removed from the vivarium to the testing area in their own cages and allowed to adapt to the new environment for at least 1 hour before testing. Alternatively, male 129S6 wild type and nociceptin/ORL1 receptor knockout mice were used to confirm dependence of the response to compound was nociceptin/ORL1 receptor dependent. All compounds are prepared in 20% Captisol, 25 mM phosphate buffer, pH 2.0 on the day of use. Mice are placed in a cylinder (diameter: 10 cm; height: 25 cm) filled with 6 cm of water (22-25° C.) for 6 min. The duration of immobility during the last 4 min. of the 6 min. period of the test was scored. A mouse is recorded as immobile when floating motionless or making only those movements necessary to keep its head above water.

[2] = Rat hepatic microsomal glutathione trapping assay; type: in vitro ADME; conditions: hepatic microsomal homogenate, glutathione as nucleophile
Source text: Assuming that reactive metabolites may play a role in clinical IDRs, minimizing the potential for oxidative bioactivation has been proposed as a means of improving the overall safety profile of compounds containing structural features associated with such reactivity. (see Baillie, Thomas A., Approaches to the Assessment of Stable and Chemically Reactive Drug Metabolites in Early Clinical Trials, Chemical Research in Toxicology, vol 22(2) 2009.) To this end, representative compounds of the present invention and related compounds are screened using a rat hepatic microsomal trapping assay, using glutathione as an endogenous nucleophile, to understand the potential for oxidative bioactivation of the thienyl moiety. […] Of the compounds tested, those wherein R^2a and R^2b are fluoro are found to not show glutathione conjugate formation.

[3] = biological target: T1, cloned human ORL1/nociceptin receptors (Homo sapiens, UniProt P41146); assay: Functional blockade of agonist-mediated G-protein activation, GTP-γ-[35S] binding; type: biochemical
T1 construct: expressed in transfected cells
T1 sequence (P41146 whole entry): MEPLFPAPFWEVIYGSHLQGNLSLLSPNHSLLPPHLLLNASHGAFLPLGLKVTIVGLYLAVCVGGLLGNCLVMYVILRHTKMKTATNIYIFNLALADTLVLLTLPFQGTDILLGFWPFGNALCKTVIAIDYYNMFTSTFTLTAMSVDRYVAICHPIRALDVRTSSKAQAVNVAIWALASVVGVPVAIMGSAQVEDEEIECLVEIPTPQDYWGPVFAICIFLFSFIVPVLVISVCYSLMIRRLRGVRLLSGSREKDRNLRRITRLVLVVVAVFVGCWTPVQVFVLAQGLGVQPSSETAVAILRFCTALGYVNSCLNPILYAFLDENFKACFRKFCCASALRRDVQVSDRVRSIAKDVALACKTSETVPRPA
Source text: Agonist-mediated stimulation of G-protein coupled receptors results in the activation of membrane associated Gαβγ-protein heterotrimer complexes, and represents the first step in the transduction of extracellular signals to modification of intracellular pathways. The first step in activation of receptor-mediated activation of Gαβγ-proteins heterotrimer is the exchange of Gα subunit bound guanosine diphoshpate (GDP) for guanosine triphosphate (GTP). The binding of GTP to the Gα subunit causes dissociation of the heterotrimer subunits, Gβ and Gγ, resulting in the modulation of several intracellular signaling cascades. Measurement of receptor-mediated G-protein activation can be measured using the non-hydrolyzable radiolabeled analog of GTP, GTP-γ-[35S]. Utilizing this methodology, antagonist affinity (Kb) is measured in membranes expressing cloned human ORL1/nociceptin receptors using a GTP-γ-[35S] binding assay according to previously described protocols with minor modifications (DeLapp et al., J Pharmacol Exp Ther. 1999 May; 289(2):946-55; Ozaki et al., Eur J Pharmacol. 2000 Aug. 18; 402(1-2):45-53). Assays are conducted in a 200-μl volume with the following buffer composition: 100 mM NaCl, 20 mM HEPES, 5 mM MgCl2, 1 mM EDTA, 0.1% BSA, 3 μM GDP, 0.5 nM [^35S]GTPγS. ORL1 receptor membrane suspension is added at a concentration of 20 μg protein per well and receptor stimulation is achieved using 300 nM nociceptin/OFQ. Wheat germ agglutinin coated SPA beads (Amersham, Arlington Hts., Ill.) are added at 1 mg per well to detect membrane-bound [^35S]GTPγS. Plates are sealed and incubated for 2 hr. at room temperature. Plates are then placed at 4° C. overnight to allow the SPA beads to settle and then counted in a Wallac Microbeta. Specific [^35S]GTPγS binding is determined as the difference in CPM observed in the absence and presence of 10 μM unlabeled GTPγS. Data are plotted as the percent of specific [^35S]GTPγS bound. Curves are plotted as the percent of specific binding and IC50 values are determined using a sigmoidal dose response curve with variable slope. Antagonist affinity (Kb) is estimated according to DeLapp et al., 1999 using a modification of the equation of Cheng and Prusoff (1973) where Kb=IC50×(1+D×EC50^−1)^−1.

[4] = test system: wild type and ORL knockout mice; assay: Blockade of fasting-induced hyperphagia in mice; type: in vivo, mouse
Source text: Blockade of fasting-induced hyperphagia in rats is an accepted model for hyperphagic eating disorders. […] Mice are individually housed a minimum of 3 days prior to the onset of testing to eliminate any effects of stress due to the change from group to individual housing. Three mice/genotype are randomly assigned to each treatment group on the test day. Pre-fast body weight measurements are taken, and food is then removed from cages overnight. Mice are fasted for approximately 15 hr. The next morning, the mice are given one of three doses of drug or vehicle via oral gavage 30 min. prior to gaining access to food. Drugs are dissolved in 20% Captisol dissolved in 25 mM phosphate buffer, pH 2.0. Measurements of body weight are taken immediately prior to drug treatment or 24 hr. after access to food is restored. […] Measurements of food intake are recorded 1 hr following access to food, as indicated, by weight of food remaining at 1 hr. It should be noted that food intake measured is during the light phase, a time during which mice are typically at rest and not normally eating. Following initial testing, mice are rested for 1 week with access to unlimited chow.

[5] = biological target: T2, nociceptin/ORL1 receptors (Rattus norvegicus, UniProt P35370); assay: In vivo receptor occupancy (LC/MS/MS, RO Tracer) in hypothalamus; conditions: for receptor occupancy at 3 mg/kg: oral 3 mg/kg dose after 6 hr.
T2 construct: rats are sacrificed by cervical dislocation and the hypothalamus is removed; from tissue; host or cells: rat hypothalamus (in vivo occupancy)
T2 sequence (P35370 whole entry): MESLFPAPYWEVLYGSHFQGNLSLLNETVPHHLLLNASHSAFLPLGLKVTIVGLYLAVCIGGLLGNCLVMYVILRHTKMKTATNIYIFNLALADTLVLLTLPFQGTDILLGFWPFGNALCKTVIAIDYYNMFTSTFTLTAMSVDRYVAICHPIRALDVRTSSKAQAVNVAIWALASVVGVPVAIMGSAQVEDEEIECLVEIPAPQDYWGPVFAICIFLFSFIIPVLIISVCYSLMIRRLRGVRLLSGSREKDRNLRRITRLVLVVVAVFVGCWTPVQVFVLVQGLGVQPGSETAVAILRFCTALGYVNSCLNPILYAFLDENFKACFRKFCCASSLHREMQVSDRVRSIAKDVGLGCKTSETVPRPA

[6] = biological target: T3, cloned human ORL1 receptors (Homo sapiens, UniProt P41146); assay: [3H]-OFQ/nociceptin receptor binding assay
T3 construct: expressed in transfected cells; host or cells: CHO cells (membranes)
T3 sequence (P41146 whole entry): as the sequence (P41146 whole entry) above
Description: (§1) Radioligand binding assays are commonly used to determine the affinity (Ki) or potency of a compound to bind to a particular receptor or target protein. A filtration-based [3H]-OFQ/nociceptin receptor binding assay is developed based on previous assay formats (Ardati A, Henningsen R A, Higelin J, Reinscheid R K, Civelli O, Monsma F J Jr. Mol. Pharmacol. 1997 May; 51(5):816-24.) with minor modifications. [3H]-OFQ/nociceptin binding assays are carried out in deep-well 96-well plates. [^3H]OFQ (final assay concentration 0.2 nM) competition studies are carried out with 5-10 μg of membrane protein (isolated from Chinese hamster ovary cells (CHO cells) expressing cloned human ORL1 receptors) in a final assay volume of 0.5 mL of buffer containing 20 mM HEPES, pH 7.4, 5 mM MgCl2, 1 mM EGTA, 100 mM NaCl, 0.1% bovine serum albumin. Samples are incubated for 60 min. at room temperature, which is found to be optimal for competition assays. The assays are terminated by filtration through glass fiber filters (Wallac filtermat A) [pretreated with 0.3% polyethylenimine (Sigma) for 1 hr] on a Tometc cell harvester, and the filters are washed three times with 5 mL of ice-cold 50 mM Tris.HCl, pH 7.4. Filtermats are then dried and imbedded with Meltilex scintillant A and the radioactivity counted in a Wallac Microbeta scintillation counter. Specific binding is determined by displacement with 100 nM unlabeled nociceptin. Curves are plotted as the percent of specific binding and IC50 values are determined using a sigmoidal dose response curve with variable slope. K, values are calculated from the IC50 by the equation of Cheng and Prusoff (Cheng, Y. C., and Prusoff, W. H., Biochem. Pharmacol. 22, 3099-3108 (1973)) where Ki=IC50×(1+D×Kd^−1)^−1. Similarly, Ki for the mu, kappa and delta opioids, serotonin, adrenergic, and muscarinic receptors may be determined using membranes expressing the desired receptor and appropriate corresponding radioligand competitor molecules.

Delta Opioid = Delta Opioid (Homo sapiens, UniProt P41143); assay: Radioligand binding selectivity; conditions: Delta Opioid; read-out: Ki
Sequence of Delta Opioid (P41143 whole entry): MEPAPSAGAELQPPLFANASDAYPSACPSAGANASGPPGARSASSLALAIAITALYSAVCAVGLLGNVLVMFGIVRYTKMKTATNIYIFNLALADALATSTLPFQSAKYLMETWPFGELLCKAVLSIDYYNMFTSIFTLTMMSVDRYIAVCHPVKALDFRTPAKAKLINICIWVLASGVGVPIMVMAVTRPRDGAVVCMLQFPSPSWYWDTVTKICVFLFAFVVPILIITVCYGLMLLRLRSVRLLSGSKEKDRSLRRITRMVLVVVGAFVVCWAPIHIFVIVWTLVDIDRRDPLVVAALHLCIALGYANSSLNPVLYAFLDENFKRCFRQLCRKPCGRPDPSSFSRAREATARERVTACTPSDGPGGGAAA
Description: as §1

Kappa Opioid = Kappa Opioid (Homo sapiens, UniProt P41145); assay: Radioligand binding selectivity; conditions: Kappa Opioid; read-out: Ki
Sequence of Kappa Opioid (P41145 whole entry): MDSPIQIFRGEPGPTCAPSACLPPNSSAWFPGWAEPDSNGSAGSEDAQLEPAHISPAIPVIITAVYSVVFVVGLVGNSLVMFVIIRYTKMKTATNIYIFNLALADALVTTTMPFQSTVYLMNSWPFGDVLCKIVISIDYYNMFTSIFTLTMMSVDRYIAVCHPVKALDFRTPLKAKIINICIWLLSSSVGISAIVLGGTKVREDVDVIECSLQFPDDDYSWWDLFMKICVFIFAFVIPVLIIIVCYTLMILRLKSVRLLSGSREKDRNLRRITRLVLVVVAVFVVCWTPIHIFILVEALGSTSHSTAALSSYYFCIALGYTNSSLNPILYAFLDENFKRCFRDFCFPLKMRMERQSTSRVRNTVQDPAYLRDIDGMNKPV
Description: as §1

Mu Opioid = Mu Opioid (Homo sapiens, UniProt P35372); assay: Radioligand binding selectivity; conditions: Mu Opioid; read-out: Ki
Sequence of Mu Opioid (P35372 whole entry): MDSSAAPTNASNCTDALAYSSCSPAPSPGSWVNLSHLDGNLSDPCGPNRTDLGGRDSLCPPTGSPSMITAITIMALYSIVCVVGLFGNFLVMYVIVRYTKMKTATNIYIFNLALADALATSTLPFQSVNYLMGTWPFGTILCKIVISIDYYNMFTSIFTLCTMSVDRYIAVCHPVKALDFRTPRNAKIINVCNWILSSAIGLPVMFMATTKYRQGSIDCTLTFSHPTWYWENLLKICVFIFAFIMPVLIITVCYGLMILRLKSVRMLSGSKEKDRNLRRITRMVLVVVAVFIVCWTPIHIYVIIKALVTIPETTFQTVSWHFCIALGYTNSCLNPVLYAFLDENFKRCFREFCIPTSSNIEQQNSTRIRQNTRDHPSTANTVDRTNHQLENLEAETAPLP
Description: as §1

[7] = biological target: human ERG (hERG) K+ channel (Homo sapiens, UniProt Q12809); assay: hERG channel [3H]astemizole binding assay
Sequence of human ERG (hERG) K+ channel (Q12809 whole entry): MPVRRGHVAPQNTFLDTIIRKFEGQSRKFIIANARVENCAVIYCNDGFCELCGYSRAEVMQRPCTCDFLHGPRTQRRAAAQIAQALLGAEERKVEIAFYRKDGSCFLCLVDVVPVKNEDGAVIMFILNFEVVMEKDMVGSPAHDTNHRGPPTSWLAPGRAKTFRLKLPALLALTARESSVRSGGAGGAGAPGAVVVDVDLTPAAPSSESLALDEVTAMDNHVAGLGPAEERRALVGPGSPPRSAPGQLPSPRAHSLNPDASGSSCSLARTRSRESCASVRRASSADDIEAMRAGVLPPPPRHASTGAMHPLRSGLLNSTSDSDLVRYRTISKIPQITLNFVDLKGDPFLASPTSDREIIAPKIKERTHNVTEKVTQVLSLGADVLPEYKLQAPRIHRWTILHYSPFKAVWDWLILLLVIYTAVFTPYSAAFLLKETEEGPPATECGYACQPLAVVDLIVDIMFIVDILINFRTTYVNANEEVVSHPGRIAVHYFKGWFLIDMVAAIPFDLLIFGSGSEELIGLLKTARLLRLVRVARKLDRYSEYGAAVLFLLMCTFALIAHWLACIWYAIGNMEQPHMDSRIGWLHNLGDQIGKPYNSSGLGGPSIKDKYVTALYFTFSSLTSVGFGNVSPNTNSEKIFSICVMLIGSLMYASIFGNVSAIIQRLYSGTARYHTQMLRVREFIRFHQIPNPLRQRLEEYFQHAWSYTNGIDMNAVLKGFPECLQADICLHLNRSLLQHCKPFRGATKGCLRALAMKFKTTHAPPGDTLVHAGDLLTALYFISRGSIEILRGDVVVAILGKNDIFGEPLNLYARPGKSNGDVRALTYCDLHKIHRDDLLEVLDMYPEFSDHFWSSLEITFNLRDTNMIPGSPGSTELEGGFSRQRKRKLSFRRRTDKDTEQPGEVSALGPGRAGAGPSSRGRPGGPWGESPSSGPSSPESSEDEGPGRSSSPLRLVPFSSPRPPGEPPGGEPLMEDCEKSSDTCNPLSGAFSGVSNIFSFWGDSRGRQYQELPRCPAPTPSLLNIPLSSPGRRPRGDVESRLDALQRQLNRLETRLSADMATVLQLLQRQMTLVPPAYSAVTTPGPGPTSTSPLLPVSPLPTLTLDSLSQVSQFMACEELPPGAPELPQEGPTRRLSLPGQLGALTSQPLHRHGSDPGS
Description: Blockade of K^+-channel conductance in the heart is associated with cardiotoxicity in the form of QT-wave prolongation. The affinity (Ki) of the exemplified nociceptin receptor antagonists for the human ERG (hERG) K^+ channel is determined in HEK293 cells expressing cloned hERG using the hERG channel antagonist radioligand [3H]astemizole (2 nM final assay concentration) according to well known procedures (see for example Finlayson K, et al. (Eur J Pharmacol. 412(3):203-12, 2001) [3H]Astemizole binding assays are performed at the contract research company Cerep (Paris France) according to standard procedures.

[8] = wild type mice, oral gavage 30 min. prior to food, food intake 1 hr

CN(C)CCCN1c2ccccc2CCc2ccccc21 [imiprimine, reference compound]
immobilization time ([1]; ORL-1 knockout mice): reduce immobilization times | immobilization time ([1]; wild type mice): reduce immobilization times

Cc1nn(-c2c(F)cccc2C(N)=O)cc1CN1CCC2(CC1)OCCc1c2sc(F)c1F.O=C(O)C(O)C(O)C(=O)O [3-fluoro-2-[4-[(2,3-difluorospiro[4,5-dihydrothieno[2,3-c]pyran-7,4′-piperidine]-1′-yl)methyl]-3-methyl-pyrazol-1-yl]benzamide (L) Tartrate, reference compound]
Glutathione conjugate formation [2]: Yes

Cc1nn(-c2c(F)cccc2C(N)=O)cc1CN1CCC2(CC1)OCCc1cc(F)sc12.O=C(O)C(O)C(O)C(=O)O [Example 9, 3-fluoro-2-[4-[(2-fluorospiro[4,5-dihydrothieno[2,3-c]pyran-7,4′-piperidine]-1′-yl)methyl]-3-methyl-pyrazol-1-yl]benzamide (L)-Tartrate]
Glutathione conjugate formation [2]: Yes

Cc1nn(-c2c(F)cccc2C(N)=O)cc1CN1CCC2(CC1)OCC(F)(F)c1cc(F)sc12.O=C(O)C(O)C(O)C(=O)O [Example 18, 3-fluoro-2-[3-methyl-4-[(2,4,4-trifluorospiro[5H-thieno[2,3-c]pyran-7,4′-piperidine]-1′-yl)methyl]pyrazol-1-yl]benzamide (L)-Tartrate]
Glutathione conjugate formation [2]: No

Cc1nn(-c2c(F)cccc2-n2ccnc2C)cc1CN1CCC2(CC1)OCC(F)(F)c1cc(Cl)sc12.O=C(O)C(O)C(O)C(=O)O [Example 47, 2-Chloro-4,4-difluoro-1′-[[1-[2-fluoro-6-(2-methylimidazol-1-yl)phenyl]-3-methyl-pyrazol-4-yl]methyl]spiro[5H-thieno[2,3-c]pyran-7,4′-piperidine] (L)-Tartrate]
Kb [3]: 0.15 nM | fasting-induced hyperphagia [4, 8]: substantially block fasting-induced hyperphagia | receptor occupancy at 3 mg/kg [5]: 84% | Ki [6]: 0.26 nM

Cc1nn(-c2c(F)cccc2CO)cc1CN1CCC2(CC1)OCC(F)(F)c1cc(Cl)sc12.O=C(O)C(O)C(O)C(=O)O [Example 1, [2-[4-[(2-Chloro-4,4-difluoro-spiro[5H-thieno[2,3-c]pyran-7,4′-piperidine]-1′-yl)methyl]-3-methyl-pyrazol-1-yl]-3-fluoro-phenyl]methanol (L)-Tartrate]
fasting-induced hyperphagia [4, 8]: substantially block fasting-induced hyperphagia

Clc1cccc(N2CCNCC2)c1 [mCPP, meta-chlorophenylpiperazine, reference compound]
fasting-induced hyperphagia ([4]; ORL-1 knockout mouse strain): significantly reduce fasting induced hyperphagia | fasting-induced hyperphagia [4, 8]: significantly reduce fasting induced hyperphagia

CC(=O)c1cccc(F)c1-n1cc(CN2CCC3(CC2)OCC(F)(F)c2cc(Cl)sc23)c(C)n1 [Example 40, 1-(2-(4-((2′-Chloro-4′,4′-difluoro-4′,5′-dihydrospiro[piperidine-4,7′-thieno[2,3-c]pyran]-1-yl)methyl)-3-methyl-1H-pyrazol-1-yl)-3-fluorophenyl)ethanone]
Ki (Delta Opioid): > 479 nM | Ki (Kappa Opioid): > 430 nM | Ki (Mu Opioid): > 451 nM | Kb [3]: 0.3 nM | maximum effect, reduction in immobilization time ([1]; mFST): 50% | ED60 ([1]; mFST, immobility time): 23 nM | fasting-induced hyperphagia [4, 8]: substantially block fasting-induced hyperphagia | receptor occupancy at 3 mg/kg [5]: 70% | Ki [7]: 1080 nM | Ki [6]: 0.25 nM

Cc1cccc2c1CC[C@@H](CN1CCC(c3c(Cl)cccc3Cl)CC1)C[C@H]2O [SB612111, (−)-cis-1-methyl-7-[[4-(2,6-dichlorophenyl)piperidin-1-yl]methyl]-6,7,8,9-tetrahydro-5H-benzocyclohepten-5-ol, reference compound]
receptor occupancy at 30 mg/kg ([5]; iv, intravenously 30 mg/kg 1 hr. prior to RO Tracer, positive control): ~100%

Reference: patent US20120214784A1, “SPIROPIPERIDINE COMPOUNDS AS ORL-1 RECEPTOR ANTAGONISTS” (ELI LILLY AND COMPANY, priority 2009, published 2012)
